Laboratory results taken from patent publication US9226500B2, “Pesticidal compositions and processes related thereto” (Dow AgroSciences LLC, priority 2012, dated 2016).

tested on: Beet Armyworm (Spodoptera exigua); assay: Bioassay on Beet Armyworm (BAW), 128-well diet tray assay; type: in vivo; conditions: Table 3, Assays Results Part 1
Experimental: Certain molecules disclosed in this document were tested against BAW, CEW and CL using procedures described in the following examples. In the reporting of the results, the “BAW & CEW & CL Rating Table” was used (See Table Section).
Bioassays on BAW (Spodoptera exigua)
Bioassays on BAW were conducted using a 128-well diet tray assay. One to five second instar BAW larvae were placed in each well (3 mL) of the diet tray that had been previously filled with 1 mL of artificial diet to which 50 μg/cm^2 of the test compound (dissolved in 50 μL of 90:10 acetone-water mixture) had been applied (to each of eight wells) and then allowed to dry. Trays were covered with a clear self-adhesive cover, and held at 25° C., 14:10 light-dark for five to seven days. Percent mortality was recorded for the larvae in each well; activity in the eight wells was then averaged. The results are indicated in the tables entitled “Table 3: Assay Results Part 1” and “Table 4: Assay Results Part 2” (See Table Section).

| Compound | BAW Rating |
| --- | --- |
| Cc1cc(/C=C/C(c2cc(Cl)cc(Cl)c2)C(F)(F)F)ccc1C(=O)NCc1ccc(Cl)cc1 (stereo not shown) [AC48] | A (50-100) |
| Cc1cc(/C=C/C(c2cc(Cl)cc(Cl)c2)C(F)(F)F)ccc1C(=O)NCc1cnccn1 (stereo not shown) [AC43] | A (50-100) |
| Cc1cc(/C=C/C(c2cc(Cl)cc(Cl)c2)C(F)(F)F)ccc1C(=O)NN(C)c1ccccc1F (stereo not shown) [AC45] | A (50-100) |
| Cc1cc(/C=C/C(c2cc(Cl)cc(Cl)c2)C(F)(F)F)ccc1C(=O)NC1CS(=O)(=O)C1 (stereo not shown) [AC13] | A (50-100) |
| O=C(CC(F)(F)F)NCc1ccc(/C=C/C(c2cc(Cl)c(Cl)c(Cl)c2)C(F)(F)F)cc1Br (stereo not shown) [CC25] | A (50-100) |
| O=C(NC1CSC1)c1ccc(/C=C/C(c2cc(Cl)c(Cl)c(Cl)c2)C(F)(F)F)cc1C(F)(F)F (stereo not shown) [AC34] | A (50-100) |
| O=C(NC1CS(=O)(=O)C1)c1ccc(/C=C/C(c2cc(Cl)c(F)c(Cl)c2)C(F)(F)F)cc1F (stereo not shown) [AC84] | A (50-100) |
| O=C(CC(F)(F)F)NCc1ccc(/C=C/C(c2ccc(Cl)c(Cl)c2)C(F)(F)F)cc1Cl (stereo not shown) [CC18] | A (50-100) |
| O=C(NC1CCN(C2COC2)CC1)c1ccc(/C=C/C(c2cc(Cl)c(Cl)c(Cl)c2)C(F)(F)F)cc1Br (stereo not shown) [AC108] | B (More than 0-Less than 50) |
| O=C(CC(F)(F)F)NCc1ccc(/C=C\C(c2cc(Cl)c(Cl)c(Cl)c2)C(F)(F)F)cc1 (stereo not shown) [CC54, (Z)-3,3,3-Trifluoro-N-(4-(4,4,4-trifluoro-3-(3,4,5-trichlorophenyl)but-1-en-1-yl)benzyl)propanamide] | A (50-100) |
| CN1CCC(NC(=O)c2ccc(/C=C/C(c3cc(Cl)c(Cl)c(Cl)c3)C(F)(F)F)cc2Br)CC1 (stereo not shown) [AC106, (E)-2-Bromo-N-(1-methylpiperidin-4-yl)-4-(4,4,4-trifluoro-3-(3,4,5-trichlorophenyl)but-1-en-1-yl)benzamide] | A (50-100) |
| FC(F)(F)C(/C=C/c1ccc(CNc2ccccn2)c(Cl)c1)c1cc(Cl)c(Cl)c(Cl)c1 (stereo not shown) [CC43, (E)-N-(2-Chloro-4-(4,4,4-trifluoro-3-(3,4,5-trichlorophenyl)but-1-en-1-yl)benzyl)pyridin-2-amine] | A (50-100) |
| Cc1cc(/C=C/C(c2cc(Cl)cc(Cl)c2)C(F)(F)F)ccc1C(=O)NCc1ccc(Cl)nc1 (stereo not shown) [AC7] | A (50-100) |
| Cc1cc(C)cc(C(/C=C/c2ccc(-n3cncn3)cc2)C(F)(F)F)c1 (stereo not shown) [DC11] | A (50-100) |
| CC(=O)N1CCC(NC(=O)c2ccc(/C=C/C(c3cc(Cl)c(Cl)c(Cl)c3)C(F)(F)F)cc2Br)CC1 (stereo not shown) [AC103, (E)-N-(1-Acetylpiperidin-4-yl)-2-bromo-4-(4,4,4-trifluoro-3-(3,4,5-trichlorophenyl)but-1-en-1-yl)benzamide] | A (50-100) |
| O=C(CNC(=O)c1ccc(/C=C/C(c2cc(Cl)cc(Cl)c2)C(F)(F)F)cc1F)NCC(F)(F)F (stereo not shown) [AC62] | A (50-100) |
| Cc1cc(/C=C/C(c2cc(Cl)c(F)c(Cl)c2)C(F)(F)F)ccc1C(=O)NCc1ccc(Cl)cn1 (stereo not shown) [AC53] | A (50-100) |
| Cc1cc(/C=C/C(c2cc(Cl)cc(Cl)c2)C(F)(F)F)ccc1C(=O)NCc1cncnc1 (stereo not shown) [AC39, 4-((E)-3-(3,5-Dichlorophenyl)-4,4,4-trifluorobut-1-enyl)-2-methyl-N-((pyrimidin-5-yl)methyl)benzamide] | A (50-100) |
| Cc1cc(/C=C/C(c2cc(Cl)cc(Cl)c2)C(F)(F)F)ccc1C(=O)NCC(=O)NC1CS(=O)(=O)C1 (stereo not shown) [AC81] | A (50-100) |
| O=C(CNC(=S)c1ccc(/C=C/C(c2cc(Cl)c(Cl)c(Cl)c2)C(F)(F)F)cc1Br)NCC(F)(F)F (stereo not shown) [AC91, (E)-2-(2-Bromo-4-(4,4,4-trifluoro-3-(3,4,5-trichlorophenyl)but-1-en-1-yl)phenylthioamido)-N-(2,2,2-trifluoroethyl)acetamide] | A (50-100) |
| O=C(Cc1ccc(Cl)nc1)NC1CCc2cc(/C=C/C(c3cc(Cl)c(F)c(Cl)c3)C(F)(F)F)ccc21 (stereo not shown) [BC9] | A (50-100) |
| O=C(NC1CCNCC1)c1ccc(/C=C/C(c2cc(Cl)c(Cl)c(Cl)c2)C(F)(F)F)cc1Br (stereo not shown) [AC114, (E)-2-Bromo-N-(piperidin-4-yl)-4-(4,4,4-trifluoro-3-(3,4,5-trichlorophenyl)but-1-en-1-yl)benzamide] | A (50-100) |
| O=C(NCc1ccc(Cl)nc1)c1ccc(/C=C/C(c2cc(Cl)c(Cl)c(Cl)c2)C(F)(F)F)cc1C(F)(F)F (stereo not shown) [AC36] | A (50-100) |
| Cc1cc(/C=C/C(c2ccc(Cl)c(Cl)c2)C(F)(F)F)ccc1C(=O)NCc1ccc(Cl)nc1 (stereo not shown) [AC37] | A (50-100) |
| Cc1cc(/C=C/C(c2cc(Cl)cc(Cl)c2)C(F)(F)F)cc(C#N)c1-n1cncn1 (stereo not shown) [DC44] | A (50-100) |

| Compound | BAW Rating |
| --- | --- |
| O=C(CC(F)(F)F)NCc1ncc(/C=C/C(c2cc(Cl)c(Cl)c(Cl)c2)C(F)(F)F)cc1Cl (stereo not shown) [CC44, (E)-N-((3-Chloro-5-(4,4,4-trifluoro-3-(3,4,5-trichlorophenyl)-but-1-en-1-yl)pyridin-2-yl)methyl)-3,3,3-trifluoropropanamide] | A (50-100) |
| CCOC(=O)c1cc(/C=C/C(c2cc(Cl)cc(Cl)c2)C(F)(F)F)ccc1-n1cncn1 (stereo not shown) [DC60] | A (50-100) |
| FC(F)(F)C(/C=C/c1ccc(-n2cncn2)cc1)c1cc(Cl)cc(Cl)c1 (stereo not shown) [DC1, (E)-1-(4-(3-(3,5-Dichlorophenyl)-4,4,4-trifluorobut-1-en-1-yl)phenyl)-1H-1,2,4-triazole] | A (50-100) |
| Fc1cc(F)cc(C(/C=C/c2ccc(-n3cncn3)cc2)C(F)(F)F)c1 (stereo not shown) [DC8] | A (50-100) |
| Cc1cc(/C=C/C(c2cc(Cl)cc(Cl)c2)C(F)(F)F)ccc1C(=O)NNc1ccccc1F (stereo not shown) [AC17] | A (50-100) |
| O=C(NCc1ccc(/C=C/C(c2cc(Cl)c(Cl)c(Cl)c2)C(F)(F)F)cc1F)C1CC1 (stereo not shown) [CC28] | A (50-100) |
| FC(F)(F)C(/C=C/c1ccc(-n2cncn2)cc1Cl)c1cc(Cl)cc(Cl)c1 (stereo not shown) [DC67] | A (50-100) |
| O=C(NC1CCCc2cc(/C=C/C(c3cc(Cl)c(Cl)c(Cl)c3)C(F)(F)F)ccc21)C1CC1 (stereo not shown) [BC7] | A (50-100) |
| FC(F)(F)CNC(=S)CNC(=S)c1ccc(/C=C/C(c2cc(Cl)c(Cl)c(Cl)c2)C(F)(F)F)cc1Br (stereo not shown) [AC90, (E)-2-Bromo-N-(2-thioxo-2-((2,2,2-trifluoroethyl)amino)ethyl)-4-(4,4,4-trifluoro-3-(3,4,5-trichlorophenyl)but-1-en-1-yl)benzothioamide] | A (50-100) |
| Fc1c(Cl)cc(C(/C=C/c2ccc3c(c2)CCC3NCCC(F)(F)F)C(F)(F)F)cc1Cl (stereo not shown) [BC10, (E)-5-(3-(3,5-Dichloro-4-fluorophenyl)-4,4,4-trifluorobut-1-en-1-yl)-N-(3,3,3-trifluoropropyl)-2,3-dihydro-1H-inden-1-amine] | A (50-100) |
| FC(F)(F)C(/C=C/c1ccc(-n2cncn2)cc1)c1ccc(Cl)c(Cl)c1 (stereo not shown) [DC12] | A (50-100) |
| N#Cc1cc(/C=C\C(c2cc(Cl)c(F)c(Cl)c2)C(F)(F)F)ccc1-n1cncn1 (stereo not shown) [DC46] | A (50-100) |
| COc1cc(/C=C/C(c2cc(Cl)c(F)c(Cl)c2)C(F)(F)F)ccc1C(=O)NC1CSC1 (stereo not shown) [AC71] | A (50-100) |
| O=C(CC(F)(F)F)NCC(=O)n1ccc2cc(/C=C/C(c3cc(Cl)c(F)c(Cl)c3)C(F)(F)F)ccc21 (stereo not shown) [BC13, (E)-N-(2-(5-(3-(3,5-Dichloro-4-fluorophenyl)-4,4,4-trifluorobut-1-en-1-yl)-1H-indol-1-yl)-2-oxoethyl)-3,3,3-trifluoropropanamide] | A (50-100) |
| Cc1cc(/C=C/C(c2cc(Cl)c(Cl)c(Cl)c2)C(F)(F)F)ccc1C(=O)NC1CSC1 (stereo not shown) [AC23] | A (50-100) |
| Cc1cc(/C=C\C(c2cc(Cl)cc(Cl)c2)C(F)(F)F)ccc1C(=O)NCC(=O)NC1CC1 (stereo not shown) [AC93] | A (50-100) |
| O=C(NC1CSC1)c1ccc(/C=C/C(c2cc(Cl)c(F)c(Cl)c2)C(F)(F)F)cc1F (stereo not shown) [AC67] | A (50-100) |
| O=C(CNC(=O)c1ccc(/C=C/C(c2cc(Cl)c(F)c(Cl)c2)C(F)(F)F)cc1Br)NCC(F)(F)F (stereo not shown) [AC79, (E)-2-Bromo-4-(3-(3,5-dichloro-4-fluorophenyl)-4,4,4-trifluorobut-1-en-1-yl)-N-(2-oxo-2-((2,2,2-trifluoroethyl)amino)ethyl)benzamide] | A (50-100) |
| Cc1cc(/C=C/C(c2cc(Cl)cc(Cl)c2)C(F)(F)F)ccc1C(=O)NCc1ccccn1 (stereo not shown) [AC12] | A (50-100) |
| N#Cc1cc(/C=C/C(c2cc(Cl)c(Cl)c(Cl)c2)C(F)(F)F)ccc1-n1cnc(N(C(=O)C2CC2)C(=O)C2CC2)n1 (stereo not shown) [DC42, (E)-N-(1-(2-Cyano-4-(4,4,4-trifluoro-3-(3,4,5-trichlorophenyl)but-1-en-1-yl)phenyl)-1H-1,2,4-triazol-3-yl)-N-(cyclopropanecarbonyl)cyclopropanecarboxamide] | A (50-100) |
| COC(/C=C/c1ccc(-n2cncn2)cc1)(c1cc(Cl)cc(Cl)c1)C(F)(F)F (stereo not shown) [DC70, (E)-1-(4-(3-(3,5-Dichlorophenyl)-4,4,4-trifluoro-3-methoxybut-1-en-1-yl)phenyl)-1H-1,2,4-triazole] | A (50-100) |
| O=C(CC(F)(F)F)NC1CCc2cc(/C=C/C(c3cc(Cl)c(F)c(Cl)c3)C(F)(F)F)ccc21 (stereo not shown) [BC8] | A (50-100) |
| CC(C)(C)OC(=O)CNC(=O)c1ccc(/C=C/C(c2cc(Cl)c(Cl)c(Cl)c2)C(F)(F)F)cc1Br (stereo not shown) [AC58] | A (50-100) |
| Cc1cc(/C=C/C(c2cc(Cl)cc(Cl)c2)C(F)(F)F)ccc1C(=O)NCc1nccn1C (stereo not shown) [AC50] | A (50-100) |
